Assay results reported in patent US20120232062A1, “AZAINDAZOLES TO TREAT FLAVIVIRIDAE VIRUS INFECTION” (EIGER BIOPHARMACEUTICALS, INC., priority 2009, published 2012).

Columns and labels:
[1] = Caco-2 permeability testing; assay type: in vitro ADME, human; conditions: human; for Papp A→B at 90 min, 10 µM: Caco-2, pH 7.4, Caco-2, A-B, read-out: Permeability (second figure of Efflux/permeability), Papp (A-B); for Papp B→A at 90 min, 10 µM: Caco-2, pH 7.4, Caco-2, B-A, read-out: Efflux (first figure of Efflux/permeability), Papp (B-A); for efflux ratio at 90 min, 10 µM: pH 7.4, Caco-2, Papp (B-A)/Papp (A-B), read-out: Efflux/Permeability ratio (desired <3)
Description: Intestinal epithelium permeability is a critical characteristic that determines the rate and extent of human absorption and affects bioavailability of a drug candidate. Poor intestinal permeability leads to limited absorption. Generally, higher absorption is preferred. The Caco-2 cell line is a human colon adeno-carcinoma cell line that resembles the epithelial lining of the human small intestine. Several transport proteins that are expressed in human intestinal epithelium are also expressed in the Caco-2 cell model. Some transporter proteins are efflux systems which mediate the secretion of compounds from inside the cell back to the apical lumen (representative of the intestinal lumen), limiting overall absorption. In a permeability assay, the apparent permeability coefficient is measured between the apical to basolateral sides of a cell monolayer, Papp (A-B), and the basolateral to the apical side, Papp (B-A). Papp (A-B)<2×10^−6 cm/s is predictive of low permeability to the basolateral side, 2×10^−6 cm/s<Papp (A-B)<20×10^−6 cm/s is predictive of medium permeability, and Papp (A-B)>20×10^−6 cm/s is predictive of high permeability. In the B-A permeability assay, Papp (B-A) is measured and compounds evaluated for efflux potential. Together, these assay results are reported as a ratio of Papp (B-A) to Papp (A-B). Papp (B-A)/Papp (A-B)>3 are likely to be transported by one of the efflux systems, and have poor absorption. Papp (B-A)/Papp (A-B)<3 are likely to show reasonable intestinal absorption. An in vitro drug absorption assay suitable for use in predicting intestinal absorption of the compounds useful in the methods of the invention is described in this example. The embodiments of this assay described in this example were developed by Shanghai ChemPartner Co., Ltd., a corporation of China with its principal office located at 720 Cailun Road, Building No. 3, Shanghai 201203, China.
Caco-2 (ATCC, catalog No. HTB-37™) cells are cultured in growth medium (MEM+10% FBS+1% NEAA). The growth medium is prepared by adding 50 mL FBS and 5 mL NEAA to 445 mL of MEM or by adjusting the final volume according to actual needs. Trypsin-EDTA (Invitrogen, Cat #25200-072) is also used.
Hanks Balanced Salt Solution (HBSS, Invitrogen, Cat #14025-092) with 25 mM HEPES, pH 7.4, HBSS buffer with 0.2% DMSO (50 μL DMSO into 25 ml HBSS buffer), and HBSS buffer with 0.4% DMSO (100 μL DMSO into 25 ml HBSS buffer) are used.
10 mM stock solutions of a compound is prepared in DMSO and Lucifer Yellow in assay buffer using the formula (Actual Weight/Molecular Weight)/mL solvent=10 mM. Erythromycin, Metoprolol, and Atenolol are used as reference compounds. Donor solutions (10 μM for compounds and 5 μM for Lucifer Yellow) are prepared. For A-B, 4 μL of 10 mM compound stock solution and 2 μL of 10 mM Lucifer Yellow stock solution are loaded into 4 mL of HBSS buffer, and centrifuged (5 min, 4000 rpm) to precipitate undissolved particles. Supernatants are collected for compound dosing. For B-A, 4 μL (compounds) of 10 mM compound stock solution is added to 4 mL HBSS buffer with 0.2% DMSO, and centrifuged (5 min, 4000 rpm) to precipitate undissolved particles. Supernatants are collected for compound dosing.
Receiver solutions are prepared. For A-B, the solution is HBSS buffer with 0.4% DMSO. For B-A, 2 μL of 10 mM Lucifer Yellow stock solution is added to 4 mL of HBSS buffer with 0.2% DMSO. Compound solutions are prepared for standard curve (3 μM/1 μM/0.2 μM/0.04 μM/0.01 μM/0.005 μM):
1× solution: 3 μL of 20× solution (0.1-60 μM)+57 μL 0.4% DMSO HBSS+60 μL acetonitrile (ACN) with internal standard (IS, 200 ng/mL Osalmid). The assay was performed as described below
Stock cultures are maintained in MEM+10% FBS+1% NEAA, grown in 75 cm^2 tissue culture treated flasks and split (passed) 2 times weekly to maintain desired confluence. For maintenance passage, trypsinized cells are routinely distributed into new flasks at a standard passage ratio of 1:4. […]

[2] = Liver microsome stability, human; assay type: in vitro ADME; conditions: for liver stability predicted by in vitro PK profiles: human vs rat liver, in words
Description: Metabolic stability assays are designed to measure the stability of a test compound in a variety of assay matrices from human and animal species. From a metabolism perspective, a drug would be relatively stable, have a small first-pass effect, and maintain an effective concentration in blood for a reasonable period of time. A microsomal preparation from the liver contains all CYP isozymes and other membrane-bound drug metabolizing enzymes which are responsible for the metabolism for the majority of drugs in humans. Metabolic stability in liver microsomes can determine half-life (T1/2) and intrinsic clearance (Clint). The determination of Clint may be useful to determine whether metabolism is the major elimination pathway when it is compared to total body clearance in vivo. For high metabolic stability in liver microsomes: […] Human, Sprague Dawley rat, and CD-1 mouse liver microsome samples were purchased from BD Gentest. An in vitro metabolic stability assay suitable for use in predicting first pass metabolism of the compounds useful in the methods of the invention is described in this example. […] 6 mM NADPH in 0.1 M K-phosphate buffer is prepared by dissolving 25.1 mg of NADPH tetrasodium salt in 5 mL of K-phosphate buffer. […] The plate is pre-incubated at 37° C. for 10 minutes. 15 μL of NADPH stock solution (6 mM) is added to the wells designated for Time 60 and timed. At 30 min, 15 min, and 5 min, 15 μL of NADPH stock solution (6 mM) is added to the wells. At the end of incubation, 135 μL of ACN containing IS is added to all the wells (60 min, 30 min, 15 min, 5 min and 0 min). Then 15 μL of NADPH stock solution (6 mM) is added to the wells designated as Time 0.

| SMILES | Papp A→B at 90 min, 10 µM [1] [×10⁻⁶ cm/s] | Papp B→A at 90 min, 10 µM [1] [×10⁻⁶ cm/s] | human liver microsome (HLM, % parent remaining) ([2]; after 15 min) [% parent remaining] | human liver microsome (HLM, % parent remaining) ([2]; after 30 min) [% parent remaining] | human liver microsome (HLM, % parent remaining) ([2]; after 60 min) [% parent remaining] | efflux ratio at 90 min, 10 µM [1] | liver stability predicted by in vitro PK profiles [2] |
| --- | --- | --- | --- | --- | --- | --- | --- |
| Cn1nc(C(=O)NC2CCN(CC(F)F)CC2)c2ccc(N3CCCCCC3)nc21 [compound 1110] | 13.8 | 10.1 | 8 | 0.4 | 0.4 | – | – |
| CCC(CC)Oc1ccc2c(C(=O)NC3CCNCC3)n[nH]c2n1 [compound 726] | 3.5 | 41 | 86 | 81 | 65 | – | – |
| Cn1nc(C(=O)NC2CCN(CCN3CCCCC3)CC2)c2ccc(N3CCCCCC3)nc21 [compound 1047] | 10.5 | 7.6 | 78 | 62 | 34 | – | – |
| O=C(NC1CCNCC1)c1nn(C(=O)C2CCCCC2)c2nc(N3CCCCCC3)ccc12.O=C(O)C(F)(F)F.O=C(O)C(F)(F)F.O=C(O)C(F)(F)F [compound 989] | 5 | 3 | – | – | – | – | – |
| CC(C)N1CCC(NC(=O)c2nn(C)c3nc(N4CCCCCC4)ccc23)CC1 [EBP1604] | 12 | 9 | 71 | 63 | 28 | 0.8 | higher stability in human liver vs rat liver |
| Cn1nc(C(=O)NC2CCN(CCN3CCCC3)CC2)c2ccc(N3CCCCCC3)nc21 [EBP1597] | – | – | 81 | 74 | 57 | 0.8 | higher stability in human liver vs rat liver |
| Clc1ccc(Cn2nc(COCCCN3CCCCC3)c3ccc(N4CCCCCC4)nc32)cc1 [compound 749] | 0.44 | 0.52 | – | – | – | – | – |
| CCN1CCC(NC(=O)c2nn(C)c3nc(N4CCCCCC4)ccc23)CC1 [EBP1595] | – | – | 73 | 46 | 14 | 0.9 | higher stability in human liver vs rat liver |
| CCN1CCC(NC(=O)c2nn(C)c3nc(N4CCCCCC4)ccc23)CC1 [compound 1595] | 15.3 | 14.4 | 73 | 45 | 14 | – | – |
| Cn1nc(C(=O)NC2CCN(CCN3CCCC3)CC2)c2ccc(N3CCCCCC3)nc21 [compound 1597] | 9.2 | 6.5 | 81 | 74 | 58 | – | – |
| CCC(CC)Oc1ccc2c(COCC3CCCNC3)nn(Cc3ccc(Cl)cc3)c2n1.O=C(O)C(F)(F)F (stereo not shown) [compound 755] | 0.4 | 0.2 | – | – | – | – | – |
| Cn1nc(C(=O)NC2CCNCC2)c2ccc(N3CCCCCC3)nc21.O=C(O)C(F)(F)F.O=C(O)C(F)(F)F [compound 697] | 5.5 | 48 | 96 | 109 | 108 | – | – |
| Cn1nc(C(=O)NC2CCN(CCN3CCCCC3)CC2)c2ccc(N3CCCCCC3)nc21 [EBP1047] | – | – | 78 | 62 | 34 | – | higher stability in human liver vs rat liver |
| Cn1nc(CCCN2CCCCC2CO)c2ccc(N3CCCCCCC3)nc21 (stereo not shown) [compound 1456] | 15 | 15 | 28 | 6 | 0.7 | – | – |
| Cn1nc(C(=O)NC2CCN(CC3CCCCC3)CC2)c2ccc(N3CCCCCCC3)nc21 [compound 1062] | 1.7 | 0.6 | – | – | – | – | – |
